# Target: CpomPBP2 (Cydia pomonella, UniProt I3ZNT9)
# Test: Competitive fluorescence binding assay with 1-NPN probe
# Conditions: 2 μM CpomPBP2 and 2 μM 1-NPN, 50 mM Tris-HCl pH 6.8 (text: pH7.0); calculated from IC50; read-out: KD (dissociation constant of competitor)
# Sequence of CpomPBP2 (I3ZNT9 26-169 limits assumed): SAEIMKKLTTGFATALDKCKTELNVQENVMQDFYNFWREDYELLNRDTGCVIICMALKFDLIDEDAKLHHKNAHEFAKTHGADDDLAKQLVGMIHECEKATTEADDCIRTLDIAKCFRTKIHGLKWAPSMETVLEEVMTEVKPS
row,Kd,Structure (SMILES)
1,6.99 ± 0.72 µM,"CCCCCCC/C=C/C=C/C=O [E,E-2,4-Dodecadienal]"
2,16.2 ± 0.84 µM,CCCCCCOC(=O)CCCCC [Hexyl Hexanoate]
3,97 ± 2.26 µM,CCC=CCCOC(=O)C(C)CC (stereo not drawn) [Z-3-Hexenyl-2-Methylbutanoate]

# Reference: article PMC4772377, “Structural insights into Cydia pomonella pheromone binding protein 2 mediated prediction of potentially active semiochemicals” (Scientific Reports, 2016)
